In ChEMBL document CHEMBL4152229, “Synthesis and biological evaluation of 2,6-disubstituted-9H-purine, 2,4-disubstitued-thieno[3,2-d]pyrimidine and -7H-pyrrolo[2,3-d]pyrimidine analogues as novel CHK1 inhibitors” (Eur J Med Chem, 2018):
Active and inactive are the calls of the source. No cut-off for these calls is given here.

How the values were obtained:
[1] = biological target: Serine/threonine-protein kinase Chk2 (Homo sapiens) (UniProt O96017); experiment: Inhibition of DNA-tagged CHK2 (unknown origin) expressed in HEK293 cells at 10 uM after 1 hr by real-time fluorescent quantitative PCR analysis; assay type: cell-based
Serine/threonine-protein kinase Chk2 (Homo sapiens), sequence (O96017 whole entry): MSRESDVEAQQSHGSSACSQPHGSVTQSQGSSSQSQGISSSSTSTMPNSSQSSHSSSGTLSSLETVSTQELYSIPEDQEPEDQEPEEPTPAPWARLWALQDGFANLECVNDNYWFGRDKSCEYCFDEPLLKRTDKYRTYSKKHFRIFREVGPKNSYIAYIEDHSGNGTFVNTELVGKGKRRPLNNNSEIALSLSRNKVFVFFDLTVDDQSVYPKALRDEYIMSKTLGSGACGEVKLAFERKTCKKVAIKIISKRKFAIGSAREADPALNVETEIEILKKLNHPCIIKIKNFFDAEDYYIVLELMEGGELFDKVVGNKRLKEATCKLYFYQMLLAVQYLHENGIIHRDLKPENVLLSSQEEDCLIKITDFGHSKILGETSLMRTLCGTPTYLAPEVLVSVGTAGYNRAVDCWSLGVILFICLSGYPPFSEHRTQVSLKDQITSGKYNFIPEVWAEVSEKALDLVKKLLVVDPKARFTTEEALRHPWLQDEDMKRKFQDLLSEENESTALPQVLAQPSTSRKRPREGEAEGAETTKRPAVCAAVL

[2] = biological target: Tyrosine-protein kinase BTK (Homo sapiens) (UniProt Q06187); experiment: Inhibition of DNA-tagged BTK (unknown origin) expressed in HEK293 cells at 10 uM after 1 hr by real-time fluorescent quantitative PCR analysis; assay type: cell-based
Tyrosine-protein kinase BTK (Homo sapiens), sequence (Q06187 whole entry): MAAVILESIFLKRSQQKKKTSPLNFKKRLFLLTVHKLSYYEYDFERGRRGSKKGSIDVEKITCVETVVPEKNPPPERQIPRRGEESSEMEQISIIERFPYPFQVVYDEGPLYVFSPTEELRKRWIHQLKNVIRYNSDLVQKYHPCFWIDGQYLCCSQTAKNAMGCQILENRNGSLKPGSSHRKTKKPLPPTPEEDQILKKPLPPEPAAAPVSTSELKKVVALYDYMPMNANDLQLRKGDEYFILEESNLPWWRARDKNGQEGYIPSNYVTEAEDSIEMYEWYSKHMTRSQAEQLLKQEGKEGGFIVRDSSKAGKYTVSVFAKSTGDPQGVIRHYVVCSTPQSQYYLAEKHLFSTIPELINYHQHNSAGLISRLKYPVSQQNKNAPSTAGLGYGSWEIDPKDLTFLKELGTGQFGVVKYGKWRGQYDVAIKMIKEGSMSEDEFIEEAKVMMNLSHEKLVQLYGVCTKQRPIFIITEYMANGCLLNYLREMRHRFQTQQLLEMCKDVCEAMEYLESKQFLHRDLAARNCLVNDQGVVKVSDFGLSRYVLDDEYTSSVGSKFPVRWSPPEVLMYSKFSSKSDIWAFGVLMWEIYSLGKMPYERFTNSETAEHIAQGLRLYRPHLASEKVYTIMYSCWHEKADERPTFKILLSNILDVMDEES

HT-29 [3] = experiment: Potentiation of gemcitabine-induced cell cycle arrest in human HT-29 cells assessed as accumulation at G2 phase at 10 uM after 48 hrs by propidium iodide/RNase staining-based flow cytometric analysis (reference value: 62.1%); assay type: functional
HEK293 = experiment: Antiproliferative activity against human HEK293 cells after 72 hrs by MTS assay; assay type: functional; details: HEK293, 72 h
HT-29 [4] = experiment: Cell cycle arrest in human HT-29 cells assessed as accumulation at S phase at 10 uM after 48 hrs by propidium iodide/RNase staining-based flow cytometric analysis (reference value: 30.9%); assay type: functional
[5] = biological target: cAMP-dependent protein kinase catalytic subunit alpha (Homo sapiens) (UniProt P17612); experiment: Inhibition of DNA-tagged PKACalpha (unknown origin) expressed in HEK293 cells at 10 uM after 1 hr by real-time fluorescent quantitative PCR analysis; assay type: cell-based
[6] = biological target: T1, Serine/threonine-protein kinase Chk1 (Homo sapiens, UniProt O14757); experiment: Inhibition of CHK1 (unknown origin) using Cdc25 peptide as substrate preincubated for 30 mins followed by substrate addition and measured after 60 mins by ADP-Glo kinase assay
T1 sequence (O14757 whole entry): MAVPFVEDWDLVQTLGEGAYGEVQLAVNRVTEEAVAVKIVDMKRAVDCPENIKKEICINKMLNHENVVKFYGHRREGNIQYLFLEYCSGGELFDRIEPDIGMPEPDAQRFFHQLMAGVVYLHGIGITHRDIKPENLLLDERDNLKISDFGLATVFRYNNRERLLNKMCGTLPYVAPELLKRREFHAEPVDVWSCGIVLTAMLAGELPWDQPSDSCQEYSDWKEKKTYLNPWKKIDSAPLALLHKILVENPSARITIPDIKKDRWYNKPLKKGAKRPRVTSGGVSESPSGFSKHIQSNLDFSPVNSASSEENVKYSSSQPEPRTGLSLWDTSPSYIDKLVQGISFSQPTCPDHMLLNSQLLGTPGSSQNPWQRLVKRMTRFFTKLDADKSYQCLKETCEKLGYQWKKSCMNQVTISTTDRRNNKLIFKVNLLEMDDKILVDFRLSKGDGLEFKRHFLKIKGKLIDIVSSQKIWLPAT

HT-29 [7] = experiment: Cell cycle arrest in human HT-29 cells assessed as accumulation at G2 phase at 10 uM after 48 hrs by propidium iodide/RNase staining-based flow cytometric analysis (reference value: 7.0%); assay type: functional
HT-29 [8] = experiment: Inhibition of colony formation in human HT-29 cells at <10 uM after 2 weeks by crystal violet staining-based assay; assay type: functional, cell-based
[9] = biological target: Epidermal growth factor receptor (Homo sapiens) (UniProt P00533); experiment: Inhibition of DNA-tagged EGFR (unknown origin) expressed in HEK293 cells at 10 uM after 1 hr by real-time fluorescent quantitative PCR analysis; assay type: cell-based
Epidermal growth factor receptor (Homo sapiens), sequence (P00533 whole entry): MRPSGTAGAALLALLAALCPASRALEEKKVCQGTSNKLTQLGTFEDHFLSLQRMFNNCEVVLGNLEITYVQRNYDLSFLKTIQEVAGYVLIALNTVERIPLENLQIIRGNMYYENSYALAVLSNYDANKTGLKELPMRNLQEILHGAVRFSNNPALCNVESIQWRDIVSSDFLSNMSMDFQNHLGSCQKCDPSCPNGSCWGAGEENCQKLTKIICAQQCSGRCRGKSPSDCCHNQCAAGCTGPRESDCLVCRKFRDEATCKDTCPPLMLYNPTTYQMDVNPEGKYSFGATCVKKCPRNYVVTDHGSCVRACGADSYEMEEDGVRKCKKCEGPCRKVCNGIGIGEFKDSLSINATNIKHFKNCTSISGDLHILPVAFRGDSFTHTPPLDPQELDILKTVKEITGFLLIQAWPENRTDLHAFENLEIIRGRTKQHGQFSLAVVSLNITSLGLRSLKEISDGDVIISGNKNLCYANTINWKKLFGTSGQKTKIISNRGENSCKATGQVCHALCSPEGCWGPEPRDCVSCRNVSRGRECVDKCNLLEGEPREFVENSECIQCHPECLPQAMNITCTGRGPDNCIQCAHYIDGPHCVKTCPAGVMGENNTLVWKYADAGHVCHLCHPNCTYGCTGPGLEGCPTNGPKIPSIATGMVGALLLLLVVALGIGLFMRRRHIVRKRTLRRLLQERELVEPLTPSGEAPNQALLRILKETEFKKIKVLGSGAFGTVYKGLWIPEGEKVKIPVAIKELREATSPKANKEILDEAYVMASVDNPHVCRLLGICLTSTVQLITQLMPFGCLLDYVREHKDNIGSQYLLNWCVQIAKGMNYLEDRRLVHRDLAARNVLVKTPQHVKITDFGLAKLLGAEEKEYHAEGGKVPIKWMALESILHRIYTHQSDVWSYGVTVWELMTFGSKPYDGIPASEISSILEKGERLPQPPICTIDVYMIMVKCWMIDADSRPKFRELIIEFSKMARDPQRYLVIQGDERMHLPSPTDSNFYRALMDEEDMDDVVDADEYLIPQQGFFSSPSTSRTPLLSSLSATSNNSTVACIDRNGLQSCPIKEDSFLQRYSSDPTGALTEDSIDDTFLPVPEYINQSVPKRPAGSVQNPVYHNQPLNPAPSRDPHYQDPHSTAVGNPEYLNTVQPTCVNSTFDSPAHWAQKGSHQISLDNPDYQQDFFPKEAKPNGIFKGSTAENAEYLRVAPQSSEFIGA

[10] = biological target: T2, Calcium/calmodulin-dependent protein kinase type IV (Homo sapiens) (UniProt Q16566); experiment: Inhibition of DNA-tagged CAMK4 (unknown origin) expressed in HEK293 cells at 10 uM after 1 hr by real-time fluorescent quantitative PCR analysis; assay type: cell-based
T2 sequence (whole entry): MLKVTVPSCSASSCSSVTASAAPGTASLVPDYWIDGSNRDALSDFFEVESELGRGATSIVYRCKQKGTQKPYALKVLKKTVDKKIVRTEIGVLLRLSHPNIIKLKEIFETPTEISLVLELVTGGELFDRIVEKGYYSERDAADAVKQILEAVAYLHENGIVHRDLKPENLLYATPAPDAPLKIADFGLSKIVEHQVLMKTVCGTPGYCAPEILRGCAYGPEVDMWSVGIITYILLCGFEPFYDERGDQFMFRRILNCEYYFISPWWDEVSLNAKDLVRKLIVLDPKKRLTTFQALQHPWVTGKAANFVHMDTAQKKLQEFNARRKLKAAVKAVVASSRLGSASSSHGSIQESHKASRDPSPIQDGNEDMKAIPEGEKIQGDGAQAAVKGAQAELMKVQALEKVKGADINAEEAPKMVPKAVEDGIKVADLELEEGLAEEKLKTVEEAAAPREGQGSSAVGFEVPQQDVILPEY

[11] = biological target: MAP kinase-activated protein kinase 2 (Homo sapiens) (UniProt P49137); experiment: Inhibition of DNA-tagged MAPKAPK2 (unknown origin) expressed in HEK293 cells at 10 uM after 1 hr by real-time fluorescent quantitative PCR analysis; assay type: cell-based
MAP kinase-activated protein kinase 2 (Homo sapiens), sequence (P49137 whole entry, looked up): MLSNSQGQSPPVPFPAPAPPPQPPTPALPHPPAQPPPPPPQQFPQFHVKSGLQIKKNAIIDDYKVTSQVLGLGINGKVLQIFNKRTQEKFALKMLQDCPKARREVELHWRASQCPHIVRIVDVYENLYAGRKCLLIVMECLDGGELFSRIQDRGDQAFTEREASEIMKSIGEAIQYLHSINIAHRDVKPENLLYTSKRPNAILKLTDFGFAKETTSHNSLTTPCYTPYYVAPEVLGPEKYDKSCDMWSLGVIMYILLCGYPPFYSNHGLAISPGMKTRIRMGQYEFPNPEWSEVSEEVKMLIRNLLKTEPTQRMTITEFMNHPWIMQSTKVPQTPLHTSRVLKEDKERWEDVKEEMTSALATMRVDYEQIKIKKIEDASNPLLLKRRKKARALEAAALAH

[12] = biological target: T3, Serine/threonine-protein kinase 3 (Homo sapiens) (UniProt Q13188); experiment: Inhibition of DNA-tagged STK3 (unknown origin) expressed in HEK293 cells at 10 uM after 1 hr by real-time fluorescent quantitative PCR analysis; assay type: cell-based
T3 sequence (whole entry): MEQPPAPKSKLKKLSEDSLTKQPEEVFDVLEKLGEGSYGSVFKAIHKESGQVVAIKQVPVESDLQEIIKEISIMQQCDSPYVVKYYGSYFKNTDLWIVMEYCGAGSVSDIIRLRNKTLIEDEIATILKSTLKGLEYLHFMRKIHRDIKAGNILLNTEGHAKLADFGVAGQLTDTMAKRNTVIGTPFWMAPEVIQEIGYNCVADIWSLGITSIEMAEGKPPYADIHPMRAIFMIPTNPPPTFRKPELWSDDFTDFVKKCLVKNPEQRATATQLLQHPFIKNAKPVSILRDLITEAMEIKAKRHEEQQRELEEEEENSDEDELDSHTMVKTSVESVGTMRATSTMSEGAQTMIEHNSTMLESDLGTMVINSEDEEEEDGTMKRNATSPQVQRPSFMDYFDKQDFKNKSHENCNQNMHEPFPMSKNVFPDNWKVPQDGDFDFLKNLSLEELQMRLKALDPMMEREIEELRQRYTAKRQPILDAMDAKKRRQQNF

[13] = biological target: ALK tyrosine kinase receptor (Homo sapiens) (UniProt Q9UM73); experiment: Inhibition of DNA-tagged ALK (unknown origin) expressed in HEK293 cells at 10 uM after 1 hr by real-time fluorescent quantitative PCR analysis; assay type: cell-based
ALK tyrosine kinase receptor (Homo sapiens), sequence (Q9UM73 19-1620 limits assumed): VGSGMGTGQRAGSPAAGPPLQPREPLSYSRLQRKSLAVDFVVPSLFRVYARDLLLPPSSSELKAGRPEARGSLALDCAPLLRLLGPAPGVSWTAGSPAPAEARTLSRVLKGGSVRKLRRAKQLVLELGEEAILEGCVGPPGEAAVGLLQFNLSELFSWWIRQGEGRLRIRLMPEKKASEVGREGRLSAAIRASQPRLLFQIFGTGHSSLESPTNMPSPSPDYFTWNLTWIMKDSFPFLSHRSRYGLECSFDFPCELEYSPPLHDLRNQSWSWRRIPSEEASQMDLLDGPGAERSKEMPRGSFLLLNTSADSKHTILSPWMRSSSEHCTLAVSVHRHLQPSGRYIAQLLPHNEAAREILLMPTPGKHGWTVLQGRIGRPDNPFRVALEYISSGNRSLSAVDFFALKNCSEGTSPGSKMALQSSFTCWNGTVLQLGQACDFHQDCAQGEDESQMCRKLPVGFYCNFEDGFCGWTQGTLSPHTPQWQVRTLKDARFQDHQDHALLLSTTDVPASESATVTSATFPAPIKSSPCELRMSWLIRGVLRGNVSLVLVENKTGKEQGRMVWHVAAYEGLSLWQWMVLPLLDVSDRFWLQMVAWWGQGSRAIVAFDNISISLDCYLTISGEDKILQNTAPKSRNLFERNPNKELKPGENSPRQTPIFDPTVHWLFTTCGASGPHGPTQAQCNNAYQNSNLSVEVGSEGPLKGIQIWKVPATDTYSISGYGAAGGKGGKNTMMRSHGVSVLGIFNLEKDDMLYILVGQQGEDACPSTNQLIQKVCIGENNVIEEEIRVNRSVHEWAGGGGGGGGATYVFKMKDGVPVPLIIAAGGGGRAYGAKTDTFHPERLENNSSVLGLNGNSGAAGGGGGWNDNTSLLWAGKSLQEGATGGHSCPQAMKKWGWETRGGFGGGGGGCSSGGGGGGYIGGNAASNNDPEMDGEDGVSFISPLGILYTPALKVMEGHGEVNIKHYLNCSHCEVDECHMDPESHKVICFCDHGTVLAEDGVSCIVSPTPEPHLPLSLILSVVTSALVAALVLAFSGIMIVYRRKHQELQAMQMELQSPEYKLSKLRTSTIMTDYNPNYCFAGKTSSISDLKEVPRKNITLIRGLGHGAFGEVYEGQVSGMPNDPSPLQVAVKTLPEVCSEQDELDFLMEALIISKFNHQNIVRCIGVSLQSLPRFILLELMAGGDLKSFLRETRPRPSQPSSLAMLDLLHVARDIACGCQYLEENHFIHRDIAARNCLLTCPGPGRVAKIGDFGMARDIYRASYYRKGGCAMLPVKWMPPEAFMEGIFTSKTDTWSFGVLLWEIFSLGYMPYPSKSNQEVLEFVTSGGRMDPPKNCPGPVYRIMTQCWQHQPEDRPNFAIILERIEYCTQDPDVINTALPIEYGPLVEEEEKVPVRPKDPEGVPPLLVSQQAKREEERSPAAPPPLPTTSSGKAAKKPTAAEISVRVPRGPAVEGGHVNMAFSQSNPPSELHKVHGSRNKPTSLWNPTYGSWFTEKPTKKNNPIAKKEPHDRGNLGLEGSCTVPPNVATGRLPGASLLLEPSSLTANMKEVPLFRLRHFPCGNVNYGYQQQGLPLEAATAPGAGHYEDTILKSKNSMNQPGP

[14] = biological target: T4, Serine/threonine-protein kinase Chk1 (Homo sapiens) (UniProt O14757); experiment: Inhibition of CHK1 (unknown origin) at 10 uM using Cdc25 peptide as substrate preincubated for 30 mins followed by substrate addition and measured after 60 mins by ADP-Glo kinase assay
T4 sequence (whole entry): T1 sequence (O14757 whole entry)

[15] = biological target: RAC-alpha serine/threonine-protein kinase (Homo sapiens) (UniProt P31749); experiment: Inhibition of DNA-tagged AKT1 (unknown origin) expressed in HEK293 cells at 10 uM after 1 hr by real-time fluorescent quantitative PCR analysis; assay type: cell-based
RAC-alpha serine/threonine-protein kinase (Homo sapiens), sequence (P31749 whole entry): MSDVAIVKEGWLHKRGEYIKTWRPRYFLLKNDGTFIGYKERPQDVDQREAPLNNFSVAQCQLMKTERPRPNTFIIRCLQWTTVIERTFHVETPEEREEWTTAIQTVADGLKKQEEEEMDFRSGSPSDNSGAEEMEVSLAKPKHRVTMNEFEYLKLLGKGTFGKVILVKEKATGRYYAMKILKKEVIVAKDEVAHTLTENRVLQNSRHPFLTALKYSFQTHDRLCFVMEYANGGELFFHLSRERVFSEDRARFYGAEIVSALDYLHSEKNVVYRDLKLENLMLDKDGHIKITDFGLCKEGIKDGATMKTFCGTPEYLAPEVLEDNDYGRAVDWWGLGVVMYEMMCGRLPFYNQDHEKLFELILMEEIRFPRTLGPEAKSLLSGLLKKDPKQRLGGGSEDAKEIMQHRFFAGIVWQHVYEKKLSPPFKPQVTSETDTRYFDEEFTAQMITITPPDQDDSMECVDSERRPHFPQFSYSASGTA

HT-29 [16] = experiment: Potentiation of gemcitabine-induced cell cycle arrest in human HT-29 cells assessed as accumulation at G1 phase at 10 uM after 48 hrs by propidium iodide/RNase staining-based flow cytometric analysis (reference value: 62.1%); assay type: functional

Fc1ccc(Nc2nc(N3CCOCC3)c3nc[nH]c3n2)cc1
inhibition [1]: 72%
inhibition [2]: 35%
Activity (HT-29 [3]): 25.2%
GI50 (HEK293): > 100000 nM
Activity (HT-29 [4]): 29.5%
inhibition [5]: 0%
IC50 [6]: 684 nM
Activity (HT-29 [7]): 10.5%
inhibition (HT-29 [8]): inactive
inhibition [9]: 0%
inhibition [10]: 0%
inhibition [11]: 18%
inhibition [12]: 44%
inhibition [13]: 1%
inhibition [14]: 89.9%
inhibition [15]: 0%
Activity (HT-29 [16]): 13.8%
